Reference: patent US8906858B2, “Method for the prophylactic or therapeutic treatment of glucocorticoid-induced osteoporosis” (Fritz-Lipmann-Institut E. V. Leibniz-Institut Fuer …, priority 2010, dated 2014)
“Also recorded” adds a separate entry of the source. Where two headings read alike, the source gives them in different places.

Legend:
[1] = tested on: Cxcl10 and IL-6 mRNA expression; conditions: primary osteoblasts, 10^−6 M CpdA, 6 h
Description: (§1) FIG. 18. […] B) After 6 h of cultivation, IL-11 mRNA expression levels were measured from total RNA extracts. C) IL-11 protein was measured in the supernatant using ELISA after 36 h of culture (n=3; Beta-actin was used for standardisation). *P<0.05, **P<0.01; 1-way ANOVA followed by Dunnett's multiple comparison test. […] E) Western blot analysis is shown for STAT3 phosphorylation of bones from GR^Runx2Cre mice subjected to organ cultures, treated as in D for 36 h.

[2] = tested on: IL-11 signaling; conditions: primary osteoblasts, 10^−6 M CpdA
Description: as §1

[3] = tested on: DBA/1 mice; conditions: CpdA (300 ug) daily for 8 d
Description: (§2) FIG. 19. […] A) Cells were fixed and stained for ALP activity after 10 d and for mineralization of the matrix using Alizarin red after 20 d of culture. B) mRNA expression levels of osteoblast marker genes are shown, indicated as arbitrary units of actin expression.
(§3) FIG. 22. Determination of alkaline phosphatase activity (ALP) and corresponding IL-11 levels with ELISA 48 hrs after induction. A) Primary osteoblasts of wild type mice were cultured for 10 days with osteogenic inducers (OI) or 0.5 ng/ml IL-11 compared to untreated cells (ctr). Cells were fixed and stained for alkaline phosphatase activity (ALP). The corresponding IL-11 levels were determined with ELISA 48 hrs after induction.

[4] = tested on: primary osteoblasts; conditions: 10^−6 M CpdA, OI differentiation
Description: as §2, §3

[5] = tested on: Mouse embryonic fibroblasts; assay: Functional screening assay, automated fluorescent microscopy of ALP activity and cytokines; type: cell-based
Description: Automated fluorescent microscopy for high content screening of factors involved in osteoblast differentiation. (A) In osteogenic differentiated (OI) wild type MEFs ALP activity is shown by a fluorescent product (ELF®, green) and nuclei are indicated by DRAQ5® staining (red).
500 Mouse embryonic fibroblasts are seeded per 384 well (2000 cells into a 96 well) until confluency (approx. 2 days). […] 3.7% Formalin is added (50 μl).
Differentiation of osteoblasts treated either with agents to be tested or with RNAi will be determined by staining for alkaline phosphatase activity (ALP kit; Sigma, Inc. or ELF® Phosphatase Detection Kit, ATCC). The preserved anti-inflammatory activity is monitored by immunhistochemical staining with antibodies against IL-6 and CXCL10. The avoidance to affect IL-11 and LIF expression is additionally determined by immunohistochemistry as well.
After fixation, the wells are stained with the nuclear stain DRAQ5 and a fluorescent substrate (ELF) for alkaline phosphatase activity. This allows monitoring cellular ALP activity by automatic microscopy and evaluation with the respective software (FIG. 17).
Immunohistochemical staining towards the antibodies IL-6, CXCL10, IL-11 and/or LIF follows as a last step. Fluorescent signals of the antibodies will be monitored by automatic microscopy and evaluation with the respective software.

[6] = tested on: MMP-13; conditions: monocytic cells
[7] = tested on: osteoblastogenesis in bone marrow / long bones of mice; assay: CFU-OBs and Col1a1 mRNA in long bones after three days of prednisolone; type: in vivo, mouse; conditions: for Col1a1 expression in long bones / osteoblastogenesis, colony forming units of osteoblasts (CFU-OBs): three days of prednisolone
Description: (G) Number of CFU-OBs within the bone marrow/leg (femur and tibia) and (H) qRT-PCR-determined Col1a1 mRNA expression in long bones of mice treated with placebo or prednisolone for three days.
(F) Number of CFU-OBs within the bone marrow/leg and (G) qRT-PCR-determined Col1a1 mRNA expression in long bones of mice treated with placebo or prednisolone for three days.
CFU-OBs per leg were obtained by counting Alizarin Red-positive colonies of 2×10^6 bone marrow cells (excluding erythrocytes) plated per 6-well after 20 days under osteogenic conditions.

[8] = tested on: bone tissue of mice; assay: Osteoblast proliferation and apoptosis in vivo (BrdU, TUNEL); set-up: species or system mouse; conditions: prednisolone for one day
Description: FIG. 10. Proliferation and apoptosis in bones of prednisolone treated GR^Runx2Cre animals. (A, B). GR^flox and GR^Runx2Cre mice were treated with prednisolone for one day pulsed with BrdU for 4 hours and histological sections of long bones stained with anti-BrdU antibody (A) and with a TUNEL kit (B). BM: bone marrow; Scale bar: 20 μm.
Mice were treated with prednisolone (12.5 mg/kg/d) for one day and they got pulsed with 10 μg/g body weight BrdU 4 hours before dissection. Decalcified deparaffined femur sections were stained with the In situ Cell Death Detection Kit (Roche) for apoptosis and rat anti-BrdU (Abcam) following Peroxidase coupled anti-rat IgG for proliferation.

[9] = tested on: Female 9 week old FVB/N mice; assay: LIF administration to prednisolone treated mice, MicroCT analysis; type: in vivo, mouse
Description: FIG. 23. LIF treatment elevates bone density of prednisolone treated mice. Female 9 week old FVB/N mice were treated with control pellets (sham), prednisolone (Pred) releasing pellets (12 mg/kg/day releasing rate) and were treated one day later with PBS and LIF i.p. injections twice a day (0.2 mg/kg/day) until 15 days. Mice were sacrificed on day 16. MicroCT Analysis was performed and representative longitudinal sections shown in (A), Bone Volume/Tissue volume determined (B) and trabecular thickness and trabecular numbers calculated (C, D). n=6, * p<0.05, ** p<0.01, *** p<0.001
After 15 days the bone mineral density was determined by micro computertomography (FIG. 23).
Female 9 week old FVB/N mice were treated with control pellets (sham), prednisolone (Pred) releasing pellets (12 mg/kg/day releasing rate) and were treated one day later with PBS and LIF i.p. injections twice a day (0.2 mg/kg/day) until 15 days. Mice were sacrificed on day 16.

[10] = tested on: 10-week-old female mice
Description: Vertebral bodies of 10-week-old female GR^Runx2cre and GR^flox mice treated with placebo (Plac) or prednisolone (Pred; 12.5 mg/kg/day) for two weeks were analyzed by (A) von Kossa staining of undecalcified sections and (B) histomorphometry of BV/TV and TbTh. (C) DPD/Cr levels in urine of mice after prednisolone treatment at indicated times. (D) Histomorphometry of osteoblast number/bone perimeter (NOb/BPm), osteocyte number/bone area (NOy/BAR) and osteoclast number/bone perimeter (NOc/BPm). (E) Fluorescent micrographs of dual calcein labeling and (F) its quantitative analysis of bone formation rate/bone surface (BFR/BS). (G) Number of CFU-OBs within the bone marrow/leg (femur and tibia) and (H) qRT-PCR-determined Col1a1 mRNA expression in long bones of mice treated with placebo or prednisolone for three days. (I) Fluorescent micrographs of dual calcein labeling and (J) its quantitative analysis of BFR/BS in tibiae of GR^LysMcre and corresponding GR^flox control mice.
(A) Fluorescent micrographs of dual calcein labeling and (B) its quantitative analysis of BFR/BS in vertebrae of GR^dim and wild type (wt) mice treated as described in FIG. 2. (C) Vertebral bodies were analyzed by von Kossa staining of undecalcified sections. (D) Histomorphometry of BV/TV, TbTh, (E) NOb/BPm, NOy/BAR and NOc/BPm. (F) Number of CFU-OBs within the bone marrow/leg and (G) qRT-PCR-determined Col1a1 mRNA expression in long bones of mice treated with placebo or prednisolone for three days. (H) DPD/Cr levels in urine of mice after prednisolone treatment at indicated times.
All animal experiments were performed in accordance with accepted standards of animal welfare and with permission of the responsible authorities of Baden-Württemberg and Thüringen. […] To induce osteoporosis, prednisolone (or a placebo control) was applied for 14 days by subcutaneous implantation of slow-release pellets resulting in a calculated dose of 12.5 mg/kg/d (15 mg; 60-day release; Innovative Research of America, Inc.) in 10-week-old female mice.
Parameters of static and dynamic histomorphometry were quantified on toluidine blue-stained undecalcified proximal tibia and lumbar vertebral sections as described previously (Amling et al., 1999) using the Osteo-histomorphometry system (Osteometrics, Atlanta, Ga., USA) (Parfitt et al., 1987). Osteocytes were assessed at the cortical bone by OsteoMeasure™ software. To assess dynamic histomorphometric indices, mice were given two injections of calcein, nine and two days before dissection. Fluorochrome measurements for the determination of the bone formation rate were performed on two nonconsecutive 12-μm-thick sections for each animal. Statistical differences between the groups (n=5-6) were assessed by the Student's t-test.

[11] = tested on: primary wild type osteoblasts; assay: Soluble factors added to osteoblasts during osteogenic induction in presence or absence of Dex; type: cell-based, mouse; conditions: day 10, with Dex
Description: FIG. 7. Differential gene regulation in GR^dim osteoblasts and bone organs by GCs and involvement of AP-1 in suppression of IL-11 in osteoblast differentiation. (A-E) Primary osteoblasts were grown until confluence and treated as described in FIG. 4A. qRT-PCR-determined mRNA expression levels of GILZ, Per-1, KLF15, Lif (LIF) and II11 (IL-11) after six hours. (F-H) qRT-PCR-determined mRNA expression level of IL-11 in organ cultures of GR mutant fetal hind legs (F), in dN^Runx2Cre osteoblasts (G) and c-jun^null MEFs (H) after six hours treatment. (I) Chromatin immunoprecipitation of MEFs after six hours. […] IgG precipitation served as negative control and amplification of the input as positive control. […] At day 10, ALP activity was determined and at day 20, Alizarin Red staining was performed. (K) Quantification of ALP-positive cells treated as in (J) after 10 days. (L) qRT-PCR-determined Runx2 mRNA expression level in cells treated as in (J) after 10 days.
FIG. 13. Effects of GR regulated soluble factors on osteoblast cell numbers. […] At day 10 cell counts were determined by automatic microscopy. Data are represented as mean+/−SEM. *<0.05.
FIG. 14. Effects of GR regulated soluble factors on osteoblast cell differentiation. Primary wild type osteoblasts were differentiated with or without Dex. At day 10 the specific ALP activity was determined and is depicted as ALP positive cells in percent in the absence or presence of NGF (A), IL-6 (B), EGF (C) and LIF (D). Data are represented as mean+/−SEM. * p<0.05; ** p<0.01.
Primary osteoblasts were isolated from either embryonic (E18.5) or neonatal calvaria by sequential digestions and cultivated as previously described (David et al., 2005). c-Jun-deficient cells were obtained from previously described mice (Schreiber et al., 1999). […] Differentiation of osteoblasts was determined by staining for ALP activity (ALP kit, Sigma or ELF® Phosphatase Detection Kit, ATCC) or by Alizarin Red staining (Sigma) at indicated time points. Apoptosis was detected by In situ Cell Death Detection Kit (Roche), and proliferation with fluorescent immunohistochemistry using mouse anti-Ki-67 (BD Pharmingen™) and Alexa Fluor® 594-labeled donkey anti-mouse IgG (Molecular Probes™). Quantification of the stainings and cell numbers according to DAPI labeling was performed by automated microscopy using Cellomics ArrayScan and software HCS Scan® (Thermo-Fischer). The factors EGF (Calbiochem), NGF2 (Sigma), IL-6 (ImmunoTools), IL-11 (Antigenix America, Inc.) and LIF (Chemicon) were added to the culture after differentiation at concentrations of 0.8, 4 and 20 ng/ml. qRT-PCR was performed as previously described (Tuckermann et al., 2007). Primer information can be provided upon request.

[12] = tested on: human cells; conditions: cited from earlier work
[13] = wild type (GR^flox) mice, prednisolone for two weeks

## CNCC(Cl)c1ccc(OC(C)=O)cc1.Cl (stereo not drawn) [Compound A]
[1]
  proinflammatory gene expression: inhibits proinflammatory gene expression
[2]
  IL-11 signaling: not IL-11 signaling
[3]
  osteoblast markers in vivo: does not affect
[4]
  osteoblast differentiation and osteoblast markers in vitro: does not affect
[5]
  result in the method for identifying agents: tested as a hit
[6]
  AP-1 dependent gene MMP-13: repressed

## C[C@]12C=CC(=O)C=C1CC[C@@H]1[C@@H]2[C@@H](O)C[C@@]2(C)[C@H]1CC[C@]2(O)C(=O)CO [prednisolone]
[7]; GR^Runx2Cre mice
  Col1a1 expression in long bones: remained unchanged
  osteoblastogenesis, colony forming units of osteoblasts (CFU-OBs): not in GR^Runx2Cre mice
[7]; GR^dim and wild type mice
  Col1a1 expression: similarly reduced in both genotypes
  Osteoblastogenesis in vitro (CFU-OBs): as efficiently suppressed in GR^dim as in wild type mice
[7]; GR^flox mice
  Col1a1 expression in long bones: strongly reduced
  osteoblastogenesis, colony forming units of osteoblasts (CFU-OBs): strongly impaired
[8]
  TUNEL and BrdU pulse labeling within bone tissue: did not alter
[9]; prednisolone pellets 12 mg/kg/day, also in LIF treated animals
  trabecular thickness: reduction of trabecular thickness
[10]; GR^LysMCre and wild type mice, prednisolone for two weeks
  bone formation rate: similarly reduced
[10]; GR^Runx2Cre mice
  numbers of osteocytes, osteoblasts and osteoblast surface: unaltered
[10]; GR^Runx2Cre mice, prednisolone for two weeks
  bone mineral density and trabecular thickness: not affected
[10]; GR^Runx2cre mice
  bone formation, dynamic histomorphometry following dual calcein labeling: fully protected
[10]; GR^dim and wild type mice
  bone formation: similarly repressed
  bone mass and trabecular thickness of the vertebrae: reduced to a comparable degree
  osteoblast and osteocyte numbers: strong reduction
  osteoclast numbers: not changed
  resorption (DPD/Cr): slightly decreased
[10]; GR^flox and GR^Runx2Cre mice
  osteoclast numbers: not affected
[10]; GR^flox and GR^Runx2Cre mice, urine
  Resorption, deoxypyridinoline (DPD/Cr) levels: slightly decreased
[10]; GR^flox mice
  numbers of osteocytes, osteoblasts and osteoblast surface: decreased
[10]; mouse, in vivo
  unspecific toxic effects of the prednisolone dose: no unspecific toxic effects
[10]; prednisolone treated mice
  reduction of osteocytes: 20-35%
[10]; vertebrae of wild type mice
  bone formation, dynamic histomorphometry following dual calcein labeling: almost complete inhibition
[10]; [13]
  bone mineral density in vertebral bones: reduced
  trabecular thickness: decreased

## IL-6: Interleukin 6 added to osteoblast cultures
[11]
  rescue of Dex-reduced osteoblast cell numbers: neither rescued the reduced cell numbers

## LIF: Leukaemia inhibitory factor, secreted polyfunctional cytokine; recombinant protein
[11]
  rescue of Dex-impaired osteoblast differentiation (ALP positive cells): potently antagonized; also recorded: ameliorated the inhibition of osteoblast differentiation
  rescue of Dex-reduced osteoblast cell numbers: not rescuing
[9]; LIF i.p. 0.2 mg/kg/day, 15 days
  trabecular number: strong increase
[9]; sham treated and prednisolone treated animals, LIF i.p. 0.2 mg/kg/day, 15 days
  bone mass (bone volume/tissue volume): increases bone mass

## epidermal growth factor: epidermal growth factor, evokes HB-EGF signaling in osteoblasts (NSDSECPLSHDGYCLHDGVCMYIEALDKYACNCVVGYIGERCQYRDLKWWELR; not fully specified; Epidermal growth factor; UniProt P01133 971-1023, looked up)
[11]
  rescue of Dex-impaired osteoblast differentiation (ALP positive cells): did not prevent the inhibition of differentiation
  rescue of Dex-reduced osteoblast cell numbers: counteracted the reduction in cell number

## human LIF: human mature LIF polypeptide of 180 amino acid residues
[12]
  activity on human and mouse cells: equally active on both human and mouse cells
